Measurements published in patent US20240150377A1, “MODULATORS OF CYSTIC FIBROSIS TRANSMEMBRANE CONDUCTANCE REGULATOR” (VERTEX PHARMACEUTICALS INCORPORATED, priority 2020, published 2024).
Where two headings read alike, the source gives them in different places. Each block holds one compound with its values, some of them ahead of it.

Target: T1, CFTR (Homo sapiens, UniProt P13569, DEL508-508)
T1 construct: endogenous in cells; host or cells: primary human bronchial epithelial cells from CF subjects (F508del/MF-HBE), differentiated at air-liquid interface
T1 sequence (P13569 with tags, fused parts or gaps DEL508-508): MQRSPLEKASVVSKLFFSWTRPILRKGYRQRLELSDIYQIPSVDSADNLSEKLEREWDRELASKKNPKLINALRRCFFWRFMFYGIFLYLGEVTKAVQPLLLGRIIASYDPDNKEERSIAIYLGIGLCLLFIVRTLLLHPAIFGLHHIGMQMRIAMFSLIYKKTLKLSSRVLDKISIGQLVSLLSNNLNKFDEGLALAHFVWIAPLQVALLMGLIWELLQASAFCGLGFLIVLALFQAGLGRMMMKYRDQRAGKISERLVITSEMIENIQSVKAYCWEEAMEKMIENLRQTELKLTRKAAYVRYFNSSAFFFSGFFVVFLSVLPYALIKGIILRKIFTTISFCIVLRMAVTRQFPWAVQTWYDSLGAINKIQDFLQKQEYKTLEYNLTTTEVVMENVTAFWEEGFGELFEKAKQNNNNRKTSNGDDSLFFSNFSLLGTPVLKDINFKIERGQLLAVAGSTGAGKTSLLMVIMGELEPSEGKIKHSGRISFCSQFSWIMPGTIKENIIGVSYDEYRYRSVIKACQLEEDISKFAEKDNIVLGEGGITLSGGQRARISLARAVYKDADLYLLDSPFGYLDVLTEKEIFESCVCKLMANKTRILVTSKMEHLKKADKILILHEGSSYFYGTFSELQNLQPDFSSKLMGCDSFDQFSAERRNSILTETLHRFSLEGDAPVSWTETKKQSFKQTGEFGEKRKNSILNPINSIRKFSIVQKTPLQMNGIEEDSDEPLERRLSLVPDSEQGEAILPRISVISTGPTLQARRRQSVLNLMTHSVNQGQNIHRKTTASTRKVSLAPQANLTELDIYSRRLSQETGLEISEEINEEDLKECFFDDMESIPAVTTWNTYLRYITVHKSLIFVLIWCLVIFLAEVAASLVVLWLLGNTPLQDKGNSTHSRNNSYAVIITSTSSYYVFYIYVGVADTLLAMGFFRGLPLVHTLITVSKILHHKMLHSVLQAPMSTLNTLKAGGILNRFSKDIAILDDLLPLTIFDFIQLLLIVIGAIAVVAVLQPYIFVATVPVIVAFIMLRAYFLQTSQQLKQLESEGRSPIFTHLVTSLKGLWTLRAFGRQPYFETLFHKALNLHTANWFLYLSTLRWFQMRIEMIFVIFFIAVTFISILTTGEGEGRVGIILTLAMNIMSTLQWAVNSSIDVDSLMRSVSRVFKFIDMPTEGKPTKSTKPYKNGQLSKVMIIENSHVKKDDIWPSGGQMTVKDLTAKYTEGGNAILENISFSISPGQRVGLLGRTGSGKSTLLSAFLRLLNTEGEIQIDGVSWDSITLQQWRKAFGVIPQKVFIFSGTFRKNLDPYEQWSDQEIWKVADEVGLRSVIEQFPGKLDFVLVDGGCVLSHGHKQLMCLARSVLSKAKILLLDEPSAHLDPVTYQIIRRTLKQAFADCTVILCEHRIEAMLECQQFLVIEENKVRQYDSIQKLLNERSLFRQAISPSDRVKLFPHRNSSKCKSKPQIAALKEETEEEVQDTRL
Test: HBE assay: Ussing chamber assay of CFTR-mediated short-circuit currents
Assay type: cell-based
Conditions: for EC50: read-out: HBE EC50
Method: 1. Ussing Chamber Assay of CFTR-Mediated Short-Circuit Currents
(§1) Ussing chamber experiments were performed using human bronchial epithelial (HBE) cells derived from CF subjects heterozygous for F508del and a minimal function CFTR mutation (F508del/MF-HBE) and cultured as previously described (Neuberger T, Burton B, Clark H, Van Goor F Methods Mol Biol 2011:741:39-54). After four days the apical media was removed, and the cells were grown at an air liquid interface for >14 days prior to use.
(§2) To isolate the CFTR-mediated short-circuit (ISC) current, F508del/MF-HBE grown on Costar® Snapwell™ cell culture inserts were mounted in an Ussing chamber and the transepithelial ISC was measured under voltage-clamp recording conditions (Vhold=0 mV) at 37° C. The basolateral solution contained (in mM) 145 NaCl, 0.83 K2HPO4, 3.3 KH2PO4, 1.2 MgCl2, 1.2 CaCl2), 10 Glucose, 10 HEPES (pH adjusted to 7.4 with NaOH) and the apical solution contained (in mM) 145 NaGluconate, 1.2 MgCl2, 1.2 CaCl2), 10 glucose, 10 HEPES (pH adjusted to 7.4 with NaOH) and 30 μM amiloride to block the epithelial sodium channel. Forskolin (20 μM) was added to the apical surface to activate CFTR, followed by apical addition of a CFTR inhibitor cocktail consisting of BPO, GlyH-101, and CFTR inhibitor 172 (each at 20 μM final assay concentration) to specifically isolate CFTR currents. The CFTR-mediated ISC (μA/cm^2) for each condition was determined from the peak forskolin response to the steady-state current following inhibition.
2. Identification of Corrector Compounds
The activity of the CFTR corrector compounds on the CFTR-mediated ISC was determined in Ussing chamber studies as described above. The F508del/MF-HBE cell cultures were either incubated with the corrector compounds at a range of concentrations in combination with 1 μM Ivacaftor or were incubated with the corrector compounds at a single fixed concentration of 10 μM in combination with 1 μM Ivacaftor for 18-24 hours at 37° C. and in the presence of 20% human serum. The concentration of corrector compounds with 1 μM Ivacaftor during the 18-24 hours incubations was kept constant throughout the Ussing chamber measurement of the CFTR-mediated ISC to ensure compounds were present throughout the entire experiment.
Ussing Chamber Assay of CFTR-mediated short-circuit currents
as §1, with “(HIBE)” for “(HBE)”, “(F508del/MIF-HIBE)” for “(F508del/MF-HBE)”
as §2, with “KH2PO4,” for “K2HPO4,”
Identification of Corrector Compounds

[1] = HBE assay, 10 μM, read-out: HBE Activity at 10 μM (%)
[2] = HBE assay, read-out: HBE Max activity (%)
[3] = Table 13, at 10 μM, read-out: HBE Activity at 10 μM (%)
[4] = Table 11, at 10 μM, read-out: HBE Activity at 10 μM (%)
[5] = Table 12, at 10 μM, read-out: HBE Activity at 10 μM (%)
[6] = Table 10, read-out: HBE Max activity (%)
[7] = Table 11, read-out: HBE Max Activity (%)
[8] = Table 13, read-out: HBE Max Activity (%)

activation at 10 µM [1]: > 60%
SMILES: COC(=O)Nc1cnc(CN2C(=O)c3cccc(c3)S(=O)(=O)Nc3nc(cc(-c4c(C)cccc4C)n3)OC[C@H]2CC(C)(C)C)nc1 [Compound 1514]

EC50 (HBE assay): 1 to 3 µM
Emax [2]: > 60%
SMILES: Cc1cccc(C)c1-c1cc2nc(n1)NS(=O)(=O)c1cccc(c1)C(=O)N(Cc1ncc(O[C@H](C)C(C)C)cn1)[C@H](CC(C)C)CO2 [Compound 1434]

Emax [6]: > 60%
SMILES: Cc1cccc(C)c1-c1cc2nc(n1)NS(=O)(=O)c1cccc(c1)C(=O)N(Cc1ccc(C(C)(C)C)nc1)[C@H](CC(C)(C)C)CO2 [Compound 1074]

activation at 10 µM [1]: > 60%
SMILES: COC[C@]1(C)CCCN1c1cccc(CN2C(=O)c3cccc(c3)S(=O)(=O)Nc3nc(cc(-c4c(C)cccc4C)n3)OC[C@H]2CC(C)(C)C)n1 [Compound 1511]

EC50 (Table 13): < 1 µM
Emax [8]: > 60%
SMILES: Cc1cc(OC(C)C)cnc1CN1C(=O)c2cccc(c2)S(=O)(=O)Nc2nc(cc(-c3c(C)cccc3C)n2)OC[C@H]1CC(C)(C)C [Compound 1116]

EC50 (Table 13): < 1 µM
Emax [8]: > 60%
SMILES: Cc1cccc(C)c1-c1cc2nc(n1)NS(=O)(=O)c1cccc(c1)C(=O)N(Cc1ccc(N3CC4(CCOCC4)C3)cn1)[C@H](CC(C)(C)C)CO2 [Compound 1060]

EC50 (Table 13): < 1 µM
Emax [8]: > 60%
SMILES: COc1cc(OC(C)C)cnc1CN1C(=O)c2cccc(c2)S(=O)(=O)Nc2nc(cc(-c3c(C)cccc3C)n2)OC[C@H]1CC(C)(C)C [Compound 1117]

EC50 (HBE assay): < 1 µM
Emax [2]: > 60%
SMILES: Cc1cccc(C)c1-c1cc2nc(n1)NS(=O)(=O)c1cccc(c1)C(=O)N(Cc1ncc(N3CC[C@H]3C)cn1)[C@H](CC(C)(C)C)CO2 [Compound 1405]

EC50 (Table 10): < 1 µM
Emax [6]: > 60%
SMILES: Cc1cccc(C)c1-c1cc2nc(n1)NS(=O)(=O)c1cccc(c1)C(=O)N(C[C@H]1CC[C@@H](N3CCCC3=O)CC1)[C@H](CC(C)(C)C)CO2 [Compound 910]

EC50 (HBE assay): < 1 µM
SMILES: Cc1cccc(C)c1-c1cc2nc(n1)NS(=O)(=O)c1cccc(c1)C(=O)N(Cc1ccnc(N3CCC[C@H]3C(C)C)n1)[C@H](CC(C)(C)C)CO2 (stereo in doubt) [Compound 1476]

activation at 10 µM [1]: > 60%
SMILES: COC[C@@]1(C)CCCN1c1cccc(CN2C(=O)c3cccc(c3)S(=O)(=O)Nc3nc(cc(-c4c(C)cccc4C)n3)OC[C@H]2CC(C)(C)C)n1 [Compound 1510]

Continued, compound first:

SMILES: CCC(=O)CN1C(=O)c2cccc(c2)S(=O)(=O)Nc2nc(cc(-c3c(C)cccc3C)n2)OC[C@H]1CC(C)(C)C [Compound 259]
activation at 10 µM [3]: > 600%

SMILES: Cc1cccc(C)c1-c1cc2nc(n1)NS(=O)(=O)c1cccc(c1)C(=O)N(CC1CCC(C)(C)O1)[C@H](CC(C)(C)C)CO2 (single isomer, unassigned) [Compound 33]
activation at 10 µM [4]: > 60%

SMILES: Cc1cccc(C)c1-c1cc2nc(n1)NS(=O)(=O)c1cccc(c1)C(=O)N(Cc1cccc3ccnn13)[C@H](CC(C)(C)C)CO2 [Compound 878]
activation at 10 µM [5]: > 600%

SMILES: Cc1cccc(C)c1-c1cc2nc(n1)NS(=O)(=O)c1cccc(c1)C(=O)N(Cc1ncc(OC(=O)OC(C)(C)C)cn1)[C@H](CC(C)(C)C)CO2 [Compound 557]
activation at 10 µM [5]: > 600%

SMILES: Cc1cccc(C)c1-c1cc2nc(n1)NS(=O)(=O)c1cccc(c1)C(=O)N(Cc1ccc(OCC(C)(C)O)cn1)[C@H](CC(C)(C)C)CO2 [Compound 51, (11R)-6-(2,6-Dimethylphenyl)-11-(2,2-dimethylpropyl)-12-[[5-(2-hydroxy-2-methyl-propoxy)-2-pyridyl]methyl]-2,2-dioxo-9-oxa-2λ^6-thia-3,5,12,19-tetrazatricyclo[12.3.1.14,8]nonadeca-1(18),4(19),5,7,14,16-hexaen-13-one]
activation at 10 µM [4]: > 60%
EC50 (Table 11): < 1 µM
Emax [7]: > 60%

SMILES: Cc1cccc(C)c1-c1cc2nc(n1)NS(=O)(=O)c1cccc(c1)C(=O)N(Cc1ccccc1-c1c[nH]nc1C(F)(F)F)[C@H](CC(C)(C)C)CO2 [Compound 304]
activation at 10 µM (Table 10, at 10 μM, read-out: HBE activity at 10 (μM) (%)): > 60%

SMILES: CC(C)=C(C)c1cccc(CN2C(=O)c3cccc(c3)S(=O)(=O)Nc3nc(cc(-c4c(C)cccc4C)n3)OC[C@H]2CC(C)(C)C)n1 [Compound 577]
activation at 10 µM [5]: > 600%

SMILES: Cc1cccc(C)c1-c1cc2nc(n1)NS(=O)(=O)c1cccc(c1)C(=O)N(Cc1ccc(N3CCOCC3)cn1)C(CC(C)(C)C)CO2 (stereo not shown) [Compound 332]
activation at 10 µM [4]: < 30%

SMILES: Cc1cccc(C)c1-c1cc2nc(n1)NS(=O)(=O)c1cccc(c1)C(=O)N(Cc1cccc(CO)n1)[C@H](CC(C)(C)C)CO2 [Compound 816]
EC50 (Table 11): < 1 µM
Emax [7]: > 60%

SMILES: COC[C@H]1CCCCN1c1cncc(CN2C(=O)c3cccc(c3)S(=O)(=O)Nc3nc(cc(-c4c(C)cccc4C)n3)OC[C@H]2CC(C)(C)C)n1 [Compound 1538]
activation at 10 µM (read-out: HBE Activity at 10 μM (%)): > 60%

SMILES: Cc1cccc(C)c1-c1cc2nc(n1)NS(=O)(=O)c1cccc(c1)C(=O)N(CC(=O)N1CCCC1(C)C)[C@H](CC(C)(C)C)CO2 [Compound 213]
activation at 10 µM [3]: > 600%

SMILES: Cc1cccc(C)c1-c1cc2nc(n1)NS(=O)(=O)c1cccc(c1)C(=O)N(Cc1ccc(C3CCOCC3)cc1F)[C@H](CC(C)(C)C)CO2 [Compound 518]
activation at 10 µM [3]: > 600%

SMILES: CCN(c1cccc(CN2C(=O)c3cccc(c3)S(=O)(=O)Nc3nc(cc(-c4c(C)cccc4C)n3)OC[C@H]2CC(C)(C)C)n1)C(C)C [Compound 131, (11R)-6-(2,6-Dimethylphenyl)-11-(2,2-dimethylpropyl)-12-({6-[ethyl(propan-2-yl)amino]pyridin-2-yl}methyl)-9-oxa-2λ^6-thia-3,5,12,19-tetraazatricyclo[12.3.1.14,8]nonadeca-1(17),4,6,8(19),14(18),15-hexaene-2,2,13-trione]
EC50 (Table 11): < 1 µM
Emax (read-out: HBE Max activity (%)): > 60%

SMILES: Cc1cccc(C)c1-c1cc2nc(n1)NS(=O)(=O)c1cccc(c1)C(=O)N(Cc1cn3ccccc3n1)[C@H](CC(C)(C)C)CO2 [Compound 699]
EC50 (Table 12): < 1 µM
Emax (Table 12, read-out: HBE Max Activity (%)): > 60%

SMILES: Cc1cccc(C)c1-c1cc2nc(n1)NS(=O)(=O)c1cccc(c1)C(=O)N(Cc1ccc3nc(NC(=O)CC(C)C)sc3c1)[C@H](CC(C)(C)C)CO2 [Compound 697]
activation at 10 µM [5]: > 600%

SMILES: Cc1cccc(C)c1-c1cc2nc(n1)NS(=O)(=O)c1cccc(c1)C(=O)N(Cc1ccc(C3CCCCC3)cn1)[C@H](CC(C)(C)C)CO2 [Compound 50, (11R)-12-[(5-Cyclohexyl-2-pyridyl)methyl]-6-(2,6-dimethylphenyl)-11-(2,2-dimethylpropyl)-2,2-dioxo-9-oxa-2λ^6-thia-3,5,12,19-tetrazatricyclo[12.3.1.14,8]nonadeca-1(18),4(19),5,7,14,16-hexaen-13-one]
EC50 (Table 10): 1 to 3 µM
Emax [6]: > 60%

SMILES: COc1cnc(CN2C(=O)c3cccc(c3)S(=O)(=O)Nc3nc(cc(-c4c(C)cccc4C)n3)OC[C@H]2CC(C)(C)C)nc1 [Compound 772]
EC50 (Table 10): < 1 µM
Emax [6]: > 60%

SMILES: Cc1cccc(C)c1-c1cc2nc(n1)NS(=O)(=O)c1cccc(c1)C(=O)N(Cc1cccc(NC(C)(C)C)n1)[C@H](CC(C)(C)C)CO2 [Compound 739]
EC50 (Table 11): < 1 µM
Emax [7]: > 60%
